Data reported in US10485773B2, “Benzenesulfonamide derivatives and method for treating cancer” (GONGWIN BIOPHARM HOLDINGS CO., LTD., priority 2016, dated 2019).
Converted amounts (≈) assume the structure as drawn. “And” between values parts separate entries of the source, which are not always exact repeats. Equal values may be shown once. Read-outs that look alike come from different tables or passages of the source.

How the values were obtained:
[1] = test system: human liver cancer cell lines Hep3B; test: SRB growth inhibition of liver cancer cells; assay type: cell-based
Procedure: (§1) After letting to stand for 10 minutes at room temperature, the supernatant of each well was removed, and each well was washed with 200 μL H2O once. […] Each of the plates was then placed in the laminar flow cabinet for 1 hour for air dry. 50 μL 0.4% sulforhodamine B (SRB) dye was added into each well of the 96-well plate. […] Each of the plates was then placed in the laminar flow cabinet for 40 minutes to 1 hour for air dry. 1×Tris-Base solution with pH 7.0 to 7.4 was added to each well of the 96-well plate to dissolve the protein complex formed in the bottom of each well, followed by tapping the 96-well plate, allowing the complex in each well to be dissolved uniformly. Absorption of each well under 515 nm was read. […] Each of the experimental group was performed in triplet.

[2] = first dissolution test in DMSO or water; settings: for Total volume of DMSO for dissolving the p-TSA derivatives / Total volume of water for dissolving the p-TSA derivatives: first dissolution test, amount for a 3M solution in 0.5 mL, up to 15000 μL; for solubility: thermodynamic from solid
Procedure: Each of the powder of p-TSA derivatives was duplicated, placed in each 15 mL centrifuge tube, followed by adding 200 μL DMSO or 200 μL water and shaking for 10 to 20 seconds for dissolution observation. If the powder was not dissolved, additional DMSO or water was added, and then the mixture was shaken. The tube was left to stand for 10 minutes for observation if the powder was still not dissolved after adding 1 mL DMSO or 1 mL water. If the powder was still not dissolved after adding 5 mL DMSO or 5 mL water, additional 1 mL DMSO or 1 mL water was added, and then the mixture was shaken for 30 seconds. If the powder was still not dissolved after adding 10 mL DMSO or 10 mL water, the tube was left to stand for 12 to 16 hours and observed on the next day. DMSO or water was added into the tube having the undissolved p-TSA derivatives up to 15 mL, followed by shaking for 30 minutes for observation.

[3] = test system: human non-small-cell lung cancer cell lines H460; test: SRB growth inhibition of lung cancer cells; assay type: cell-based
Procedure: as §1

[4] = Homo sapiens, Hep3B, 48 h, derivative dissolved in DMSO, 48 hours, SRB, read-out: IC50 of Hep3B in DMSO
[5] = Homo sapiens, NCI-H460, 48 h, derivative dissolved in DMSO, 48 hours, SRB, read-out: IC50 of H460 in DMSO
[6] = DMSO, organic solvent or mixture
[7] = Homo sapiens, Hep3B, 48 h, derivative dissolved in water, 48 hours, SRB, read-out: IC50 of Hep3B in water
[8] = derivative dissolved in DMSO, 48 hours, SRB, read-out: IC50 of Hep3B in DMSO
[9] = Homo sapiens, NCI-H460, 48 h, derivative dissolved in water, 48 hours, SRB, read-out: IC50 of H460 in water
[10] = derivative dissolved in DMSO, 48 hours, SRB, read-out: IC50 of H460 in DMSO

Compound	IC50 [1, 4]	Total volume of DMSO for dissolving the p-TSA derivatives ([2]; DMSO)	Total volume of water for dissolving the p-TSA derivatives ([2]; water)	IC50 [3, 5]	IC50 [3, 9]	further results
NS(=O)(=O)c1ccc(C(=O)O)cc1 [PTSA004]	> 7000 µM	960 (with pipetting) μL	insoluble in 15000 μL	9670 µM	–	–
Cc1ccc(S(=O)(=O)NC(=O)NS(=O)(=O)c2ccc(C)cc2)cc1 [PTSA018]	–	2000 µL	2500 µL	–	> 3000 µM	IC50 [1, 7]: > 3000 µM; IC50 [1, 8]: > 3000 µM; IC50 [3, 10]: > 3000 µM
Cc1ccc(S(=O)(=O)NCC2(CO)COC2)cc1 [PTSA039]	3740 µM	500 µL	insoluble in 15000 μL	4160 µM	–	–
Cc1ccc(S(=O)(=O)NCC2CCNCC2)cc1.Cl [PTSA054]	935 µM	740 µL	insoluble in 15000 μL	1170 µM	–	–
CCOC(=O)NS(=O)(=O)c1ccc(C)cc1 [PTSA015]	–	815 µL	500 µL	–	4960 µM	IC50 [1, 8]: 5770 µM; IC50 [3, 10]: 4790 µM
COC(=O)NS(=O)(=O)c1ccc(C)cc1 [PTSA012]	–	680 µL	500 µL	–	> 5000 µM	IC50 [1, 8]: 7500 µM; IC50 [3, 10]: 6110 µM
Cc1ccc(S(=O)(=O)NC[C@H](C)O)cc1 [PTSA023]	2650 µM	500 µL	insoluble in 15000 μL	2890 µM	–	–
Cc1ccc(S(=O)(=O)NCC(O)CO)cc1 (centres unmarked) [PTSA028]	5360 µM	620 µL	insoluble in 15000 μL	5530 µM	–	–
Cc1ccc(S(=O)(=O)NCCO)cc1 [PTSA020]	2640 µM	490 µL	10000 µL	2610 µM	> 1000 µM	IC50 [1, 7]: > 1000 µM
Cc1ccc(S(=O)(=O)NCCS(=O)(=O)O)cc1 [PTSA048]	> 3000 µM	2000 µL	10000 µL	> 3000 µM	> 3000 µM	IC50 [1, 7]: > 3000 µM
Cc1ccc(S(=O)(=O)NC2COC2)cc1 [PTSA040]	329 µM	475 µL	insoluble in 15000 μL	431 µM	–	IC50 [1, 8]: 413 µM; solubility [2, 6]: 762 mg/mL (≈ 3350 mM); solubility ([2]; water): < 50 mg/mL; IC50 [3, 10]: 406 µM
Cc1ccc(S(=O)(=O)NCCN(C)C)cc1.Cl [PTSA051]	1410 µM	1500 µL	1000 µL	1820 µM	1750 µM	IC50 [1, 7]: 1440 µM
Cc1ccc(S(=O)(=O)NC2CCNCC2)cc1.Cl [PTSA052]	919 µM	2000 µL	5000 µL	906 µM	1090 µM	IC50 [1, 7]: 954 µM
Cc1ccc(S(=O)(=O)N2CC(C(=O)[O-])C2)cc1.[Na+] [PTSA061]	–	2500 µL	750 µL	–	–	IC50 ([1]; Homo sapiens, Hep3B, 48 h, read-out: IC50 of Hep3B in DMSO): > 2250 µM; IC50 ([1]; Homo sapiens, Hep3B, 48 h, read-out: IC50 of Hep3B in water): > 8800 µM; IC50 ([3]; Homo sapiens, NCI-H460, 48 h, read-out: IC50 of H460 in DMSO): > 2250 µM; IC50 ([3]; Homo sapiens, NCI-H460, 48 h, read-out: IC50 of H460 in water): > 8800 µM
Cc1ccc(S(N)(=O)=O)cc1 [p-TSA, Toluene sulfonamide, reference compound]	–	–	–	–	–	IC50 [1, 8]: 3730 ± 274 µM; Solubility in DMSO ([2]; DMSO): 785.95 mg/mL (≈ 4590 mM); Solubility in water ([2]; water): <50 mg/mL; IC50 [3, 10]: 3720 ± 146 µM
Cc1ccc(S(=O)(=O)NC[C@@H](O)CO)cc1 [PTSA027]	4100 µM	575 µL	insoluble in 15000 μL	5350 µM	–	–
COC(=O)NS(=O)(=O)c1ccc(C)cc1 [PTSA011]	4560 µM	560 µL	insoluble in 15000 μL	5490 µM	–	–
Cc1ccc(S(=O)(=O)NCC(F)(F)F)cc1 [PTSA050]	–	590 µL	insoluble in 15000 μL	–	–	–

The next lines start with results.

IC50 [1, 4]	Total volume of DMSO for dissolving the p-TSA derivatives ([2]; DMSO)	Total volume of water for dissolving the p-TSA derivatives ([2]; water)	IC50 [3, 5]	IC50 [3, 9]	Compound	further results
261 µM	870 µL	insoluble in 15000 μL	273 µM	–	Cc1ccc(S(=O)(=O)N2CC(C(=O)NO)C2)cc1 [PTSA067]	solubility [2, 6]: 466 mg/mL (≈ 1720 mM); solubility ([2]; water): < 50 mg/mL
1570 µM	680 µL	insoluble in 15000 μL	1620 µM	–	Cc1ccc(S(=O)(=O)N2CCNCC2)cc1 [PTSA038]	–
–	850 µL	insoluble in 15000 μL	–	–	Cc1ccc(S(=O)(=O)N2CC(=NO)C2)cc1 [PTSA070]	–
1780 µM	505 µL	insoluble in 15000 μL	1500 µM	–	Cc1ccc(S(=O)(=O)N2CCCC2CO)cc1 (centres unmarked) [PTSA034]	–
> 2250 µM	3000 µL	insoluble in 15000 μL	> 2250 µM	–	Cc1ccc(S(=O)(=O)N2CC(C(N)=O)C2)cc1 [PTSA062]	–
265 µM	605 µL	insoluble in 15000 μL	288 µM	–	Cc1ccc(S(=O)(=O)N2CC(O)C2)cc1 [PTSA037]	IC50 [1, 8]: 274 µM and 264 µM; solubility [2, 6]: 832 mg/mL (≈ 3660 mM); solubility ([2]; water): < 50 mg/mL; IC50 [3, 10]: 259 µM
733 µM	3000 µL	insoluble in 15000 μL	906 µM	–	Cc1ccc(S(=O)(=O)N2CC(=O)C2)cc1 [PTSA066]	–
–	510 µL	insoluble in 15000 μL	–	–	CC(=O)NS(=O)(=O)c1ccc(C)cc1 [PTSA001]	IC50 [1, 8]: > 9000 µM; IC50 [3, 10]: 7720 µM
–	15000 µL	2500 µL	–	691 µM	Cc1ccc(S(=O)(=O)N2CCC(N)CC2)cc1.Cl [PTSA053]	IC50 [1, 7]: 770 µM
> 713 µM	750 µL	insoluble in 15000 μL	> 713 µM	–	Cc1ccc(S(=O)(=O)N2CC(F)(F)C2)cc1 [PTSA064]	–
596 µM	2000 µL	3000 µL	617 µM	651 µM	Cc1ccc(S(=O)(=O)N2CCC(CN)CC2)cc1.Cl [PTSA055]	IC50 [1, 7]: 610 µM; solubility [2, 6]: 229 mg/mL; solubility ([2]; water): 152 mg/mL
1020 µM	1500 µL	insoluble in 15000 μL	1040 µM	–	Cc1ccc(S(=O)(=O)N2CC(C(=O)NN)C2)cc1 [PTSA071]	–
3620 µM	880 µL	insoluble in 15000 μL	2580 µM	–	Cc1ccc(S(=O)(=O)N2CC(CO)C2)cc1 [PTSA069]	–
> 3000 µM	2000 µL	2500 µL	> 3000 µM	> 3000 µM	Cc1ccc(S(=O)(=O)N2CCCC2C(=O)O)cc1 (centres unmarked) [PTSA047]	IC50 [1, 7]: > 3000 µM
> 1120 µM	4500 µL	insoluble in 15000 μL	> 1120 µM	–	CON=C1CN(S(=O)(=O)c2ccc(C)cc2)C1 [PTSA072]	–
